The source of these data is US20090317457A1, “ANTI-INFLAMMATORY AND WOUND HEALING EFFECTS OF LYMPHOID THYMOSIN B-4” (Yale University, priority 2002, published 2009).

The subject of assay [1] is λ-carrageenan induced neutrophil mediated inflammation of the footpad. Briefly: λ-carrageenan-induced footpad inflammation (footpad swelling). Format: in vivo, BALB/c mice. The note with it: for Footpad Thickness (+/− SE): Un-Methionated Thymosin Experiment (A), oxidised peptide. The procedure:
Experimental groups of 8-10 female BALB/c mice, 8-10 weeks of age, were housed in temperature controlled rooms and given food and water ad libitum. Observations and measurements were made by an investigator blinded to the experimental group. λ-Carrageenan injection. After measuring the baseline thickness of the hind footpads with a spring-loaded engineer's micrometer, mice were injected subcutaneously in both hind paws with 340 μg of λ-carrageenan in 40 μl. 6 h., 24 h., and 48 h. after the injection of λ-carrageenan, footpads were re-measured and swelling calculated by subtracting the baseline from the experimental measurements. For each mouse, increases in right and left footpad thickness were averaged. Thymosin peptides were injected as previously described [reference 8]: (i) intraperitoneally with 100 μl of 3.50×10^−5 M peptide solution, 30 minutes before footpad injection; (ii) intradermally into the footpad with 40 μl of 8.75×10^−5 M peptide solution and λ-carrageenan at time 0, and (iii) intraperitoneally with 100 μl of 3.50×10^−5 M peptide solution, 6 h. after footpad injection. For each group, the mean increase in footpad thickness was calculated, and compared to other groups using a one-tailed Student's t-test. The experiment was repeated four times. Statistics. Groups were compared for differences in the meaning using a one-tailed Student's t test; p<0.05 was considered statistically significant.

Assay [2] shares this test system. As to conditions: oxidised form; reference 8; cited from earlier work.
Assay [3] concerns DNFB-induced allergic contact dermatitis of ear skin. Briefly: DNFB allergic contact dermatitis (ACD) ear swelling assay. Format: in vivo, FVB mice. As to conditions: for DNFB Ear Thickness (+/− SE): Un-Methionated Thymosin Experiment; for ear thickness: unit not given. Here is the method:
Experimental groups of 8-10 female FVB mice, 8-10 weeks of age, were housed in temperature controlled rooms and given food and water ad libitum. Observations and measurements were made by an investigator blinded to the experimental group. Mice were sensitized on day 0 by epicutaneous application to razor-shaved abdominal skin of 25 μl of 0.5% DNFB in a mixture of acetone:olive oil (4:1). Before the challenge with DNFB, mice were injected (i) intraperitoneally with 100 μl of 3.50×10^−5 M thymosin peptide solution (30 minutes before DNFB) and (ii) intradermally with 40 μl of 8.75×10^−5 M peptide solution in both ears (1 min prior to DNFB challenge). On day 5, after measuring baseline ear thickness with an engineer's micrometer, mice were challenged by applying 10 μl of 0.2% DNFB in acetone:olive oil to each side of each ear. Ears were re-measured 6 h., 24 h., and 48 h. after challenge, and data expressed as the response above baseline (i.e., ear thickness 24 h. after challenge minus ear thickness immediately prior to challenge)±1 standard error of the mean (S.E.). For each mouse, increases in right and left ear thickness were averaged. The experiment was repeated twice. Statistics. Groups were compared for differences in the meaning using a one-tailed Student's t test; p<0.05 was considered statistically significant.

In a further assay the test system is neutrophil chemotaxis. The note with it: chemically-synthesized peptide; reference 8; cited from earlier work.
Assay [4] deals with human umbilical vein endothelial cells (HUVEC). The note with it: references 8, 9; cited from earlier work.

Consider “N-SDKPDMAEIEKFDKSKLKKTETQEKNPL-PSKETIEQEKQAGES-C (SEQ ID NO:1) [UTβ4]”, for which the “suppression of footpad inflammation relative to PBS” value in assay [1] (6 h) turned out to be 12%; in assay [1] (24 h), 30%; in assay [1] (48 h), 31%. The substance also registered a footpad thickness in assay [1] (24 h, unit not given) of 0.37±0.03. Further, the Footpad Thickness (+/− SE) in assay [1] (forty-eight hours after λ-carrageenan) amounted to 0.41 ± 0.04 mm; in assay [1] (six hours after λ-carrageenan, increase over baseline) it was 0.53 ± 0.03 mm; in assay [1] (twenty-four hours after λ-carrageenan), 0.37 ± 0.03 mm. For the same substance, the “inhibition of λ-carrageenan-induced edema/inflammation in the mouse footpad” value in assay [2] was “active”. Moreover, the results for the “suppression of ACD ear swelling response relative to PBS” value in assay [3] (6 h), in assay [3] (24 h) and in assay [3] (72 h) were −4%, 5% and 2%, respectively. For the same substance, in assay [3] (6 h, 24 h and 72 h after challenge), the “ear swelling response compared to mice receiving PBS or UTβ4 (FIG. 4A)” value was “no significant suppression”. For the same substance, the “DNFB Ear Thickness (+/− SE)” value in assay [3] (forty-eight hours after challenge) was 19.90 ± 1.02 .01 mm; in assay [3] (six hours after challenge) it was 9.85 ± 0.66 .01 mm; in assay [3] (twenty-four hours after challenge), 22.68 ± 1.33 .01 mm. The ear thickness in assay [3] (seventy-two hours) stood at 19.90±1.02; in assay [3] (six hours) it was 9.85±0.66; in assay [3] (twenty-four hours), 22.68±1.33. In addition, in the assay with neutrophil chemotaxis, the “neutrophil chemotaxis in vitro” value is recorded as “inhibit neutrophil chemotaxis in vitro”. Besides, in assay [4], the “closure of scratch wounds in endothelial cell and keratinocyte monolayers in vitro” value is on record as “promote the closure”.
